# Reference: the OPERA property sets (Mansouri et al. 2018)
row,logP,Compound
1,2.47,O=C(CN1CCCC1)NC1COc2ccc(Cl)cc21 (centres undefined)
2,4.24,CCCCN(CCCC)CC(=O)NC1COc2cc(OC)ccc21 (centres undefined)
3,2.41,COc1ccc2c(c1)OCC2NC(=O)CN1CCCCC1 (centres undefined)
4,2.78,Cc1ccc2c(c1)C(NC(=O)CN1CCCCC1)CO2 (centres undefined)
5,3.01,O=C(CN1CCCCC1)NC1COc2ccc(Cl)cc21 (centres undefined)
6,2.3,O=C(CN1CCCCC1)NC1COc2ccccc21 (centres undefined)
7,4.44,CCCCN(CCCC)CC(=O)NC1COc2ccc(Cl)cc21 (centres undefined)
8,0.92,COc1ccc2c(c1)OCC2NC(=O)CN1CCOCC1 (centres undefined)
9,2.24,Cc1ccc2c(c1)C(NC(=O)CN1CCCC1)CO2 (centres undefined)
10,1.38,Cc1ccc2c(c1)C(NC(=O)CN1CCOCC1)CO2 (centres undefined)
11,4.43,CCCCN(CCCC)CC(=O)NC1COc2ccc(C)cc21 (centres undefined)
12,2.69,CCN(CC)CC(=O)NC1COc2ccc(C)cc21 (centres undefined)
13,1.92,COc1ccc2c(c1)OCC2NC(=O)CN1CCCC1 (centres undefined)
14,2.2,CCN(CC)CC(=O)NC1COc2ccccc21 (centres undefined)
15,1.76,O=C(CN1CCCC1)NC1COc2ccccc21 (centres undefined)
16,4.15,CCCCN(CCCC)CC(=O)NC1COc2ccccc21 (centres undefined)
17,1.55,O=C(CN1CCOCC1)NC1COc2ccc(Cl)cc21 (centres undefined)
18,0.81,O=C(CN1CCOCC1)NC1COc2ccccc21 (centres undefined)
19,2.88,CCN(CC)CC(=O)NC1COc2ccc(Cl)cc21 (centres undefined)
